Calls of active or inactive are those of the source. The calls are words filed in the database; no cut-off is given here.
Legend:
[1] = biological target: T1, Trypsin (Homo sapiens, UniProt P07477+P07478+P35030); assay: Inhibition of trypsin (unknown origin) using Boc-Val-Pro-Arg-AMC as substrate preincubated with enzyme for 15 mins followed by addition of substrate by fluorescence plate reader analysis; assay type: protein assay
[2] = biological target: Genome polyprotein (West Nile virus) (UniProt P06935); assay: (§1) Inhibition of West Nile virus His-tagged NS2B cofactor domain-NS3 protease expressed in Escherichia coli at 50 uM using 2-Abz-Gly-Leu-Lys-Arg-Gly-Gly-(3-NO2)-Tyr-NH2 as substrate preincubated with enzyme for 15 mins followed by substrate addition measured for every 1 sec for 15 mins by fluorescence microplate reader based HPLC analysis relative to control
[3] = biological target: T2, Prothrombin (Homo sapiens, UniProt P00734); assay: Inhibition of thrombin (unknown origin) at 25 uM using Boc-Val-Pro-Arg-AMC as substrate preincubated with enzyme for 15 mins followed by addition of substrate by fluorescence plate reader analysis relative to control
[4] = biological target: T1, Trypsin; assay: Inhibition of trypsin (unknown origin) at 50 uM using Boc-Val-Pro-Arg-AMC as substrate preincubated with enzyme for 15 mins followed by addition of substrate by fluorescence plate reader analysis relative to control; assay type: protein assay
[5] = biological target: T2, Prothrombin; assay: Inhibition of thrombin (unknown origin) using Boc-Val-Pro-Arg-AMC as substrate preincubated with enzyme for 15 mins followed by addition of substrate by fluorescence plate reader analysis
[6] = biological target: Genome polyprotein (dengue virus type 2) (UniProt P29990); assay: (§2) Time-dependent inhibition of dengue virus serotype 2 His-tagged NS2B cofactor domain-NS3 protease expressed in Escherichia coli at 50 uM using 2-Abz-Nle-Lys-Arg-Arg-Ser-(3-NO2)-Tyr-NH2 as substrate preincubated with enzyme for 20 to 40 mins followed by substrate addition measured for every 1 sec for 15 mins by fluorescence plate reader based HPLC analysis
[7] = biological target: Genome polyprotein (dengue virus type 2) (UniProt P29990); assay: as §2, with “Inhibition” for “Time-dependent inhibition”, “15” for “20 to 40”, “analysis relative to control” for “analysis”
[8] = biological target: T1, Trypsin; assay: Inhibition of trypsin (unknown origin) at 1 mM using Boc-Val-Pro-Arg-AMC as substrate preincubated with enzyme for 15 mins followed by addition of substrate by fluorescence plate reader analysis relative to control; assay type: protein assay
[9] = biological target: Genome polyprotein (dengue virus type 2) (UniProt P29990); assay: as §2, with “Inhibition” for “Time-dependent inhibition”, “1 mM” for “50 uM”, “15” for “20 to 40”, “analysis relative to control” for “analysis”
[10] = biological target: T2, Prothrombin; assay: Inhibition of thrombin (unknown origin) at 500 uM using Boc-Val-Pro-Arg-AMC as substrate preincubated with enzyme for 15 mins followed by addition of substrate by fluorescence plate reader analysis relative to control
[11] = biological target: Genome polyprotein (West Nile virus) (UniProt P06935); assay: as §1, with “1 mM” for “50 uM”
[12] = Stability of compound in TRIS assay buffer at pH 7.5 to 9; assay type: physicochemical
[13] = Stability of compound in phosphate buffer at pH 7.5 to 11; assay type: physicochemical
[14] = biological target: Genome polyprotein (dengue virus type 2) (UniProt P29990); assay: Reversible covalent binding affinity at dengue virus serotype 2 His-tagged NS2B cofactor domain-NS3 protease expressed in Escherichia coli assessed as acyl-enzyme adduct formation at 100 uM incubated for 5 to 24 hrs by ESI-MS analysis
[15] = system: dengue virus type 2; assay: Reversible covalent binding affinity at dengue virus serotype 2 His-tagged NS2B cofactor domain-NS3 protease S135A mutant expressed in Escherichia coli assessed as acyl-enzyme adduct formation at 100 uM incubated for 24 hrs by ESI-MS analysis
[16] = biological target: Genome polyprotein (dengue virus type 2) (UniProt P29990); assay: Reversible covalent binding affinity at dengue virus serotype 2 His-tagged NS2B cofactor domain-NS3 protease expressed in Escherichia coli assessed as acyl-enzyme adduct formation at 100 uM incubated for 2 hrs by ESI-MS analysis
[17] = biological target: Genome polyprotein (dengue virus type 2) (UniProt P29990); assay: Reversible covalent binding affinity at dengue virus serotype 2 His-tagged NS2B cofactor domain-NS3 protease expressed in Escherichia coli assessed as acyl-enzyme adduct formation at 100 uM incubated for 24 hrs by ESI-MS analysis
[18] = biological target: Genome polyprotein (dengue virus type 2) (UniProt P29990); assay: Reversible covalent inhibition of dengue virus serotype 2 His-tagged NS2B catalytic domain-NS3 protease expressed in Escherichia coli using 2-Abz-Nle-Lys-Arg-Arg-Ser-(3-NO2)-Tyr-NH2 as substrate preincubated initially at 100 uM with enzyme for 1 hr followed by dilution with assay buffer to achieve compound concentration of 3.33 uM prior to substrate addition measured immediately after dilution by fluorescence plate reader based HPLC analysis
[19] = biological target: Genome polyprotein (dengue virus type 2) (UniProt P29990); assay: Reversible covalent inhibition of dengue virus serotype 2 His-tagged NS2B catalytic domain-NS3 protease expressed in Escherichia coli at 100 uM using 2-Abz-Nle-Lys-Arg-Arg-Ser-(3-NO2)-Tyr-NH2 as substrate preincubated with enzyme for 1 hr followed by dilution prior to substrate addition measured at 120 mins after dilution by fluorescence plate reader based HPLC analysis
[20] = biological target: Genome polyprotein (dengue virus type 2, UniProt P29990); assay: as §2, with “Inhibition” for “Time-dependent inhibition”, “coli” for “coli at 50 uM”, “15” for “20 to 40”
[21] = Stability of compound in phosphate buffer assessed as half life at pH 11; assay type: physicochemical
[22] = biological target: Genome polyprotein (dengue virus type 2) (UniProt P29990); assay: Reversible covalent binding affinity at dengue virus serotype 2 His-tagged NS2B cofactor domain-NS3 protease expressed in Escherichia coli assessed as acyl-enzyme adduct formation at 100 uM incubated for 5 to 30 mins by ESI-MS analysis
[23] = Stability of compound in phosphate buffer at pH 9; assay type: physicochemical
[24] = biological target: Genome polyprotein (dengue virus type 2) (UniProt P29990); assay: Reversible covalent binding affinity at dengue virus serotype 2 His-tagged NS2B cofactor domain-NS3 protease expressed in Escherichia coli assessed as acyl-enzyme adduct formation at 100 uM incubated for 20 hrs by ESI-MS analysis
[25] = Stability of compound in TRIS buffer at pH 7.5; assay type: physicochemical
[26] = Stability of compound in TRIS buffer assessed as half life at pH 9; assay type: physicochemical
[27] = biological target: Genome polyprotein (dengue virus type 2) (UniProt P29990); assay: as §2, with “Inhibition” for “Time-dependent inhibition”, “catalytic” for “cofactor”, “100” for “50”, “1 hr” for “20 to 40 mins”, “analysis relative to control” for “analysis”
[28] = biological target: Genome polyprotein (dengue virus type 2) (UniProt P29990); assay: Reversible covalent inhibition of dengue virus serotype 2 His-tagged NS2B catalytic domain-NS3 protease expressed in Escherichia coli using 2-Abz-Nle-Lys-Arg-Arg-Ser-(3-NO2)-Tyr-NH2 as substrate preincubated initially at 100 uM with enzyme for 1 hr followed by dilution with assay buffer to achieve compound concentration of 3.33 uM prior to substrate addition measured after dilution over time by fluorescence plate reader based HPLC analysis
[29] = biological target: Genome polyprotein (dengue virus type 2) (UniProt P29990); assay: as §2, with “200” for “50”

Genome polyprotein (West Nile virus), sequence (P06935 whole entry, the tested form may be a part): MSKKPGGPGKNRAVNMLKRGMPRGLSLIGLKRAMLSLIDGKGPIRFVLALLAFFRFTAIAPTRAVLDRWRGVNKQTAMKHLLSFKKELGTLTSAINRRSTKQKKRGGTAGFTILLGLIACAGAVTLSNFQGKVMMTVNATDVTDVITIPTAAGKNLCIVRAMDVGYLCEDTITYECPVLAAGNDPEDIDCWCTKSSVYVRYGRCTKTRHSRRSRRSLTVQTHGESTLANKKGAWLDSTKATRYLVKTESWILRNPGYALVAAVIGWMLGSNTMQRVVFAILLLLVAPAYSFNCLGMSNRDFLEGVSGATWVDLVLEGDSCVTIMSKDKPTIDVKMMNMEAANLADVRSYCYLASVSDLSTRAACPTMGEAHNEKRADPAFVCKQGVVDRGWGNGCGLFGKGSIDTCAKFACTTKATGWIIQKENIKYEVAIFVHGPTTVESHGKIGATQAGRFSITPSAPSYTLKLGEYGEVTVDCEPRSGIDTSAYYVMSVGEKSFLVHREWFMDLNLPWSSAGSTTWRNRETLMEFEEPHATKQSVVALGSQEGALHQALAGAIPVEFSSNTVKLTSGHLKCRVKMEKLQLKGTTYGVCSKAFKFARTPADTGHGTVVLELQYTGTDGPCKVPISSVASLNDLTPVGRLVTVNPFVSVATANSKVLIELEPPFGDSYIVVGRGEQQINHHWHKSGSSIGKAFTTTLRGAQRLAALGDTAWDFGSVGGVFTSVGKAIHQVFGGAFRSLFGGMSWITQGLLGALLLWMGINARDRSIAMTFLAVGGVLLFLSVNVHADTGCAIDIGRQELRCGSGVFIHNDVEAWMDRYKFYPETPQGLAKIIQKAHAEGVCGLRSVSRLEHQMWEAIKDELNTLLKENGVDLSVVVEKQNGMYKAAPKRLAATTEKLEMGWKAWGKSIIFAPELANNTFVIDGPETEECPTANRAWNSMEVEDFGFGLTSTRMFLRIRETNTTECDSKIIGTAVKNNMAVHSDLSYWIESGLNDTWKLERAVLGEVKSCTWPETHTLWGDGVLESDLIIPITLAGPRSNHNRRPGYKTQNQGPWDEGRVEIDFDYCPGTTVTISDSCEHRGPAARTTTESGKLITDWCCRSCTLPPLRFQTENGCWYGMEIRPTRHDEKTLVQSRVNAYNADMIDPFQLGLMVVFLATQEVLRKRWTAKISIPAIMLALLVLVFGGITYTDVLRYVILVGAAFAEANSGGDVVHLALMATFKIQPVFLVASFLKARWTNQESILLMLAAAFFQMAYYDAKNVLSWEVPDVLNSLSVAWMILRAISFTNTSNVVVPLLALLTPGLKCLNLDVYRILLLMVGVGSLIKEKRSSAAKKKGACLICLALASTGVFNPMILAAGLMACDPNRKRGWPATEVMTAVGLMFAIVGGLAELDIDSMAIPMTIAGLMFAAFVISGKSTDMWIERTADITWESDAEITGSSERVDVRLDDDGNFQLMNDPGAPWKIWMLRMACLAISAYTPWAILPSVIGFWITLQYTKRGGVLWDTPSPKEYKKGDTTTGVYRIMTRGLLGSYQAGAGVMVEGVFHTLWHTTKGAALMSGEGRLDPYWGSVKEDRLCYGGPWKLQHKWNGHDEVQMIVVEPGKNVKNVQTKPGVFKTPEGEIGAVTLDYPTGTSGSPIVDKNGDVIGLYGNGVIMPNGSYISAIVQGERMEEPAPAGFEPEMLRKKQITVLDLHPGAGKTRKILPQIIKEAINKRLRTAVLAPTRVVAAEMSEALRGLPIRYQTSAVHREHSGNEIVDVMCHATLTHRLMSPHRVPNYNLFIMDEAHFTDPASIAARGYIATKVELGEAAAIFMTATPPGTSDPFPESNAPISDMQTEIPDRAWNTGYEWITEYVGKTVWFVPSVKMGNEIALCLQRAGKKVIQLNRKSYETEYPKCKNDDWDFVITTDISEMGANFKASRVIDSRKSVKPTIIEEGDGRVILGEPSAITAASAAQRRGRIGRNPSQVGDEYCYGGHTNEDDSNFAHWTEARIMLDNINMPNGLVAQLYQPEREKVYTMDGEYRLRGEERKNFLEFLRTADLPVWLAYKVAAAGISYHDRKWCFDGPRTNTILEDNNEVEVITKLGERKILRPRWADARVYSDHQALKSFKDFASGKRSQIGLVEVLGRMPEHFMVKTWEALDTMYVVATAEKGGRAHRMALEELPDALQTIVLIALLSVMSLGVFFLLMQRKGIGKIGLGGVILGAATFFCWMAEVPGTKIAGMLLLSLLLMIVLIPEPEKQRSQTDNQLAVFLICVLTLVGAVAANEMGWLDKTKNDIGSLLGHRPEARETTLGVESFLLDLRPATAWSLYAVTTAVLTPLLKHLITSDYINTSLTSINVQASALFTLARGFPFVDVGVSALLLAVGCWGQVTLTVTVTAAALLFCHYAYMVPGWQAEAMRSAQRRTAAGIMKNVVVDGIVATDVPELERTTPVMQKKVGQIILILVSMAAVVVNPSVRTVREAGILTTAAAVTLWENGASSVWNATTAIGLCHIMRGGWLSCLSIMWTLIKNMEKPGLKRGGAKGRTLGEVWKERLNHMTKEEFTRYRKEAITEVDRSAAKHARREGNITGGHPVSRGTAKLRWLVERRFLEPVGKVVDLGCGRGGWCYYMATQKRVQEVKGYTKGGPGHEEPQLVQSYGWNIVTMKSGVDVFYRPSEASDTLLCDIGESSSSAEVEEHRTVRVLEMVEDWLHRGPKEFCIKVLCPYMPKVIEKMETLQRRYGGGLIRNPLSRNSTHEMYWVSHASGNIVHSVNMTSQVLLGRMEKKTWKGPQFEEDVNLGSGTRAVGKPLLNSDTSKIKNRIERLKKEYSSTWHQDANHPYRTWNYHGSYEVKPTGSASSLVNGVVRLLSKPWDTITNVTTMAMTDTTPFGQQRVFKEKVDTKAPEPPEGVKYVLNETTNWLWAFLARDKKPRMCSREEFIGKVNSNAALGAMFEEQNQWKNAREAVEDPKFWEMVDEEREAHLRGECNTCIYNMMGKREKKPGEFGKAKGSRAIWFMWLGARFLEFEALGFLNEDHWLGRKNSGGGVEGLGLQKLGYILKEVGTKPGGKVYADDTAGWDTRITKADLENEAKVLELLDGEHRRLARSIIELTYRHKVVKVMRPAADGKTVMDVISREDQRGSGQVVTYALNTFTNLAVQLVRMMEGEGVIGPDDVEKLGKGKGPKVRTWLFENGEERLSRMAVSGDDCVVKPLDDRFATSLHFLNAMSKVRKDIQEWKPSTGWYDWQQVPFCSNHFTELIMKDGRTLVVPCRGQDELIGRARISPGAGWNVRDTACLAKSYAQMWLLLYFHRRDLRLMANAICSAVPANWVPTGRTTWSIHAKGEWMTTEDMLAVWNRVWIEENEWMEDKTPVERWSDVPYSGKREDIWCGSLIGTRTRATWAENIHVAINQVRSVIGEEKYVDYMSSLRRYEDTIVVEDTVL

| Structure (SMILES) | IC50 [1] [nM] | inhibition [2] [%] | inhibition [3] [%] | inhibition [4] [%] | inhibition [7] [%] | inhibition [8] [%] | inhibition [9] [%] | inhibition [10] [%] | inhibition [11] [%] | further results |
| --- | --- | --- | --- | --- | --- | --- | --- | --- | --- | --- |
| N=C(N)Nc1ccc(C(=O)Oc2ccc(CN)cc2)cc1 | 1.56 | 36.5 | 92.5 | 101 | 40.1 |  |  |  |  | IC50 [5]: 530 nM; TDI [6]: Active |
| N=C(N)NCCCC(=O)Oc1ccc(NC(=N)N)cc1 |  | < 5 | 13.2 | 18.3 | 4.2 |  |  |  |  |  |
| CN(C)C(=O)Oc1cc(NC(=N)N)ccc1C(=O)Nc1ccc(CN)cc1 |  |  |  |  |  | 43.7 | 74.4 | 12.4 | 73.3 |  |
| N=C(N)Nc1ccc(C(=O)Oc2ccc(N)cc2)cc1 | 28 | < 5 | 97.1 | 102 | 8.8 |  |  |  |  | Stability [12]: Stable; IC50 [5]: 800 nM; Stability [13]: Stable |
| Nc1ccc(NC(=O)Oc2ccc(N)cc2)cc1 |  |  |  |  |  | 99.2 | 33.7 | 83.3 | 72.8 |  |
| CN(C(=O)Oc1ccc(CN)cc1)c1ccc(CN)cc1 |  |  |  |  |  | 43.9 | 31.3 | 12.2 | 62.9 |  |
| CN(C)C(=O)Oc1ccc(NC(=N)N)cc1C(=O)Nc1ccc(CN)cc1 |  |  |  |  |  | 19.3 | 56 | 24.3 | 76.1 |  |
| N=C(N)Nc1ccc(C(=O)Nc2cccc(NC(=N)N)c2)cc1 | 23900 | < 5 | 16.4 | 94.6 | 36.8 |  |  |  |  |  |
| N=C(N)NCc1ccc(NC(=O)Oc2ccc(N)cc2)cc1 |  |  |  |  |  | 98.4 | 60.8 | 44.4 | 68.8 |  |
| N=C(N)NCCCCOC(=O)c1ccc(NC(=N)N)cc1 | 8270 | 17.1 | 27.3 | 84 | 49 |  |  |  |  |  |
| N=C(N)Nc1ccc(NC(=O)c2ccc(NC(=N)N)cc2)cc1 |  | 17.9 | 23.9 | 87.2 | 23.2 |  |  |  |  | Stability [12]: Stable; Activity [14]: inactive; TDI [6]: inactive; Stability [13]: Stable |
| N=C(N)Nc1ccc(OC(=O)c2ccc(N)cc2)cc1 | 2.78 | < 5 | 76.7 | 101 | 45.4 |  |  |  |  | Activity [15]: inactive; Activity [16]: inactive; IC50 [5]: 17600 nM; Activity [17]: Active; TDI [6]: Active |
| N=C(N)NCCCOC(=O)c1ccc(NC(=N)N)cc1 | 9840 | < 5 | 22.8 | 78.9 | 56.8 |  |  |  |  | Stability [12]: Stable; Stability [13]: Stable |
| N=C(N)Nc1ccc(OC(=O)c2ccc(NC(=N)N)cc2)cc1 | 1.35 | 29.8 | 99 | 100 | 98.1 |  |  |  |  | inhibition [18]: Active; inhibition [19]: inactive; IC50 [20]: 14.4 µM; Activity [15]: inactive; half-life [21]: 17.8 min; Activity [22]: Active; Stability [23]: Stable; Activity [24]: inactive; Stability [25]: Stable; half-life [26]: 16.8 min; IC50 [5]: 4080 nM; TDI [6]: Active; inhibition [27]: 100%; inhibition [28]: inactive |
| CN(C)C(=O)Oc1cc(NC(=N)N)ccc1NC(=O)c1ccc(NC(=N)N)cc1 |  |  |  |  |  | 99.2 | 20.2 | 67.8 | 23.9 |  |
| CN(C(=O)Oc1ccc(N)cc1)c1ccc(N)cc1 |  |  |  |  |  | 95.9 | 29.8 | 72.7 | 68 |  |
| CN(C(=O)Oc1ccc(CN)cc1)c1ccc(N)cc1 |  |  |  |  |  | 95.6 | 22.9 | 46.9 | 59.3 |  |
| N=C(N)Nc1ccc(NC(=O)Oc2ccc(N)cc2)cc1 | 46300 | 61.9 | 12.1 | 101 | 52 | 101 | 52 | 12.1 | 61.9 | Activity [14]: inactive; TDI [29]: inactive |
| N=C(N)NCCCCC(=O)Oc1ccc(NC(=N)N)cc1 |  | < 5 | 72.5 | 65.9 | 4.6 |  |  |  |  |  |
| N=C(N)Nc1ccc(C(=O)Oc2cccc(NC(=N)N)c2)cc1 |  | 17.5 | 100 | 100 | 51.3 |  |  |  |  |  |
| CN(C)C(=O)COC(=O)Cc1ccc(OC(=O)c2ccc(NC(=N)N)cc2)cc1 [CAMOSTAT] | 3.5 | 12.6 | 94 | 100 | 19.6 |  |  |  |  |  |
